The values below come from patent US7754064B2, “Methods and apparatus for the on-site production of hydrogen peroxide” (Eltron Research & Development, priority 2006, dated 2010).

One assay concerns biofouling. The following applies: cited from earlier work.
The subject of another assay is Pseudomonas cepacia. Conditions: alkaline solutions of 1000 ppm H2O2, filtration units.
A further assay deals with Vibrio hollisae. The following applies: 20° C., 3-50 ppm H2O2, 6-30 minutes exposure.
Another assay has as its system Perkinsus marinus. Conditions: treatment time 30 minutes, four trials.

Method for Perkinsus marinus: The final series of trials explored the effectiveness of the treatment against the protozoan Perkinsus marinus which is pathogenic to shellfish and causes the disease Dermo. Essentially the same protocol used for QPX was adapted to Perkinsus and represented a novel method of determining Perkinsus viability after disinfection treatments. Here four duplicate trials were run, again with a treatment time of 30 minutes.
Method for QPX (Quahog Parasite-X): For the QPX studies, a stock QPX culture (Quahog Parasite-X, a protista slime mold causing shellfish disease) was washed three times in sterile nature seawater (NSW) to remove the nutrient media and disperse the encapsulating mucous mass. The washed sample was then re-suspended in sterile NSW (working culture). A sample aliquot was removed and diluted (1:1) in sterile NSW to determine the actual cell density. […] A control sample with NO peroxide in the treatment solution was also prepared. […] After incubation (48 hrs) the remainder of the innocula were centrifiged at 10,000 G for 2 minutes. All fluid was removed from the tube to leave a final volume of 100 μL. Propidium iodide (100 μL; 20 g/mL) was added to each tube and allowed to sit for 30 minutes in the dark at room temperature. The tubes were then centrifuged (10,000 G for 2 minutes) and the resulting pellet washed three times with filtered NSW (250 μL). After the third wash, 200 μL of fluid was removed from each tube and the pellet was re-suspended in the remaining 50 μL of fluid. The fluids generated from this preparation were added to a Neubauer hemocytometer counting chamber and the cell concentrations were determined between treatments. […]
Method for Vibrio hollisae: A stock culture of Vibrio hollisae was diluted to 1×10-5 with micropore filtered seawater (FSW). The dilution was calculated to yield a sample density of roughly 350 CFUs/mL after 48 hr of grow up. The experimental matrix consisted of peroxide concentration versus exposure time. The bacteria were exposed to the peroxide in liquid cultures, and then the treated bacteria were plated onto agar plates and colony counts done at 24 and 48 hrs. Data were analyzed for LD-100 conditions for maximal effect at lowest concentration and shortest exposure time. Six tubes of 5 mL bacterial culture were prepared. […] A control sample containing NO peroxide was also prepared. At each treatment exposure time point (6, 10, 15, and 30 minutes respectively), 1 mL was removed from each tube and filtered through a mixed cellulose ester filter (0.45 micron pore size, 47 mm dia., Fisher #09-719-1A). Each filter was then placed onto a TCBS (thiosulfate, citrate, bile, and sucrose) media plate and incubated for 48 hr at room temperature (23° C.). Standard colony counts were then made for the entire filter for each treatment condition. The procedure was repeated in triplicate. For each repetition, three separate samples (batches) were prepared and two duplicate trials were run for each batch sample. The results were statistically analyzed using ANOVA and paired student t-test paired comparisons. […]
From the text for mixed plankton: This study largely entailed LD50 and LD100 lethality screening of the target chemistry produced by the electrolytic system under development to natural marine organisms. Specifically, the work focused on organisms with sizes of less than 100 μm as larger organisms can be readily eliminated by other technologies (screening or hydrocyclones). Within this size regime normal crustaceans, planktons, and etc. obtained by trawling were targeted. […] For the trawled organisms and the protozoan, destruction was noted by lack of motility.
Mixed indigenous zooplankton (these provided random samples of a variety of organisms as might be encountered in ballast water) were obtained by plankton trawls from the waters off Woods Hole, Mass. and the toxicity assays focused on zooplankton (such as dinoflagellates which are less prone to sedimentation than say diatoms) where viability could be readily assessed through motility monitoring. After the samples were collected they were counted and separated into sample populations under a dissecting scope with a low heat lamp using standard techniques. […]
Toxicity studies were performed on the targeted plankton samples by exposing them to synthetic cell product and monitored until mortality occurred. […]

Turning to `OO` [hydrogen peroxide], the “concentration typically required for sufficient effectiveness in sterilization” value in the assay with biofouling (industrial disinfection (powerplant biofouling, sewage treatment)) was 50-200 ppm. The “concentration that can be effective towards fouling control” value in the assay on biofouling (recent data) is on record as 2 ppm. Moreover, in the assay with Pseudomonas cepacia, the Pseudomonas cepacia eliminated entry is “more than 100%” and the “log kill of Pseudomonas cepacia” value turned out to be 7 log. In addition, the “time*dosage factor for plankton kill” value in the assay with mixed plankton (mixed plankton, 4, 10 and 20° C., from LD-50 and LD-100, averaged over four concentrations) is 1000 to 3000 ppm min. Also, in the assay with mixed plankton (mixed zooplankton in natural seawater with added H2O2), the “LD50's as percent of 100% mortality times” value is on record as 40-50%. Also, in the assay with Vibrio hollisae, the “time dosage values sufficient to achieve 2 log kills (99%)” value is recorded as 1000 to 2000 ppm min. In addition, in the assay with QPX (Quahog Parasite-X) (10 ppm H2O2, 30 min., 20° C., average of two trials), the “average viable cell count” value was found to be 430 cells/L. The “resistance to the treatment compared with general plankton and Vibrio ssp.” value with QPX (Quahog Parasite-X) (30 minutes treatment, 0-150 ppm) was “slightly more resistant”. Moreover, the “time*dosage values sufficient to reduce occurrence of Perkinsus to hinder spread of disease” value in the assay on Perkinsus marinus is listed as 1500 to 5000 ppm.
